# Literature values as cited in US20100203146A1, “INTERMITTENT DOSING STRATEGY FOR TREATING RHEUMATOID ARTHRITIS” (Callisto Pharmaceuticals, Inc., priority 2009, published 2010).
# Experiments:
# arthritis patients = conditions: after a single dosage of 90 mg
# RA patients = conditions: at the administered doses
# patients with RA = conditions: often observed
# [1] = after 14 or 28 days of daily oral dosing
SMILES,area under the concentration-time curve (AUC) [1],maximum concentration (Cmax) [1],half-life (in man) [days],patient-reported relief (arthritis patients),dose-limiting toxicity (RA patients),tolerability (RA patients; on drug for as long as one year),response (improvement) (patients with RA)
"CCCC1(CCC)CCC2(CCN(CCCN(CC)CC)C2)CC1 [Atiprimod, 2-(3-Diethylaminopropyl)-8,8-dipropyl-2-azaspiro[4,5]decane]",lower than expected,lower than expected,~60,feeling better,no observed dose-limiting toxicity,well-tolerated,
CN(Cc1cnc2nc(N)nc(N)c2n1)c1ccc(C(=O)N[C@@H](CCC(=O)O)C(=O)O)cc1 [Methotrexate],,,,,,,less than 50%
